Tests used:
[1] = target: Caspase-8 (Homo sapiens, UniProt Q14790); assay: Inhibitory concentration against recombinant human caspase-8 […]
[2] = target: T1, Caspase-4 (Homo sapiens, UniProt P49662); assay: Inhibitory concentration against casp-4 in neuronal precursor (NT2) cells
T1 sequence (P49662 whole entry): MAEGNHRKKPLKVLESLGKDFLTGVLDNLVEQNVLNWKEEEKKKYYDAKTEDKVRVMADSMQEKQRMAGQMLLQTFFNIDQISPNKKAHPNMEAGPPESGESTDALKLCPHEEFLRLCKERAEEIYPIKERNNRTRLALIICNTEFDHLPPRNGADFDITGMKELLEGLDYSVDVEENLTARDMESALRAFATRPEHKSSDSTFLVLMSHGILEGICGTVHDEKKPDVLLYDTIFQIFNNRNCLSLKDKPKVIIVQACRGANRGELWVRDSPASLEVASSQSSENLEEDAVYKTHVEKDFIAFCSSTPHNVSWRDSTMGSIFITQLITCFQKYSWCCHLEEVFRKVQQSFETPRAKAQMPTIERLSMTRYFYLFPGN

[3] = test system: NT2; assay: Inhibitory concentration against camptothecin induced apoptosis in neuronal precursor (NT2) whole cells; format: functional, cell-based; conditions: Homo sapiens
[4] = Inhibitory concentration against cycloheximide induced cell death in human white blood cells in the absence of plasma proteins; format: functional, cell-based
[5] = Inhibitory concentration against etoposide induced apoptosis in rat cortical neurons; format: functional
[6] = target: T2, Caspase-10 (Homo sapiens, UniProt Q92851); assay: Inhibitory concentration against casp-10 in neuronal precursor (NT2) cells
T2 sequence (Q92851 whole entry): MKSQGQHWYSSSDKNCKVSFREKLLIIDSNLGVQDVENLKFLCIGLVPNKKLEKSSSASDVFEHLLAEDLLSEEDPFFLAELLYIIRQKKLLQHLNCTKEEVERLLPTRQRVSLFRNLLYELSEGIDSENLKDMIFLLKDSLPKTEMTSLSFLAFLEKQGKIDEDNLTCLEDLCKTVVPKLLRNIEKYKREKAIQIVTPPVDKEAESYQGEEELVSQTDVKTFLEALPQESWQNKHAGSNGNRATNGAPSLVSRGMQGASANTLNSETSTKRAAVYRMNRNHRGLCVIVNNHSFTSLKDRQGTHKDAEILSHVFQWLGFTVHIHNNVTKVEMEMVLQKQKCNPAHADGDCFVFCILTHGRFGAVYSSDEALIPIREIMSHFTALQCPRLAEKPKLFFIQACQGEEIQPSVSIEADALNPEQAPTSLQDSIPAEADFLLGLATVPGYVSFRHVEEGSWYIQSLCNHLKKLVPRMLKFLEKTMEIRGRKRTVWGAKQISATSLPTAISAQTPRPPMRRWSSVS

[7] = target: T3, Caspase-2 (Homo sapiens, UniProt P42575); assay: Inhibitory concentration against casp-2 in neuronal precursor (NT2) cells
T3 sequence (P42575 whole entry): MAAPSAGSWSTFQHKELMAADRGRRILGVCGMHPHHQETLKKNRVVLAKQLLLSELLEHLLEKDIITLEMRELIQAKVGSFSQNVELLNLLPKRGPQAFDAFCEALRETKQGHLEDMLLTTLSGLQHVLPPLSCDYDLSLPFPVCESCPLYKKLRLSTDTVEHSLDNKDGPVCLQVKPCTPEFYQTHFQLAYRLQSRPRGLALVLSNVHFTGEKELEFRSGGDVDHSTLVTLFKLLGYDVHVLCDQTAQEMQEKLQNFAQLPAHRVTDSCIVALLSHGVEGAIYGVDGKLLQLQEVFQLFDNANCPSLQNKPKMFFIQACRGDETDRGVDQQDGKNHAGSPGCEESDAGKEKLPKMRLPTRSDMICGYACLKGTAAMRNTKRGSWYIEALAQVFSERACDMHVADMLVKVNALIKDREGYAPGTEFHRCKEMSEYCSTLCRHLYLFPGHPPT

[8] = target: T4, Caspase-6 (Homo sapiens, UniProt P55212); assay: Inhibitory concentration against casp-6 in neuronal precursor (NT2) cells
T4 sequence (P55212 whole entry): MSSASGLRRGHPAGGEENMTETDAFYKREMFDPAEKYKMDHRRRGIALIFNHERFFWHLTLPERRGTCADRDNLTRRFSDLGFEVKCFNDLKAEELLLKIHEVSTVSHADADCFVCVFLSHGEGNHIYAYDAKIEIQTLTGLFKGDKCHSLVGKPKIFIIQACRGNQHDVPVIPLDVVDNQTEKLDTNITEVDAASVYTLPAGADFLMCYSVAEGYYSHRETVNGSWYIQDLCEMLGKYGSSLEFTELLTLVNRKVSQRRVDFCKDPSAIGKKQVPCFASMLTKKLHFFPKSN

[9] = Inhibitory concentration against etoposide induced apoptosis in mice cerebellar granule neurons; format: functional; conditions: Mus musculus
[10] = target: T5, Caspase-1 (Homo sapiens, UniProt P29466); assay: Inhibitory concentration against recombinant human caspase-1 in neuronal precursor (NT2) cells
T5 sequence (P29466 whole entry): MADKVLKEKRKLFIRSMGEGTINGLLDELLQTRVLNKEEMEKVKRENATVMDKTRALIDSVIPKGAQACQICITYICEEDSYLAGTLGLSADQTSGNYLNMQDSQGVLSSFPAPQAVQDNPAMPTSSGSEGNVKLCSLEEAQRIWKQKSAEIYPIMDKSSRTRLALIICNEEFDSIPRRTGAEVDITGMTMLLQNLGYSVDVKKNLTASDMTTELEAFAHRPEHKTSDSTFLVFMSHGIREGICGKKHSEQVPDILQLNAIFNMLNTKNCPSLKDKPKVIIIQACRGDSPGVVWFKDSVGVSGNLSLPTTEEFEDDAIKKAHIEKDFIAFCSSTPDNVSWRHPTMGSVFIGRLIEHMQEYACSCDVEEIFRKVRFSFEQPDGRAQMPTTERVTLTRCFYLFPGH

[11] = target: T6, Caspase-3 (Homo sapiens, UniProt P42574); assay: Inhibitory concentration against recombinant human caspase-3 in neuronal precursor (NT2) cells
T6 sequence (P42574 whole entry): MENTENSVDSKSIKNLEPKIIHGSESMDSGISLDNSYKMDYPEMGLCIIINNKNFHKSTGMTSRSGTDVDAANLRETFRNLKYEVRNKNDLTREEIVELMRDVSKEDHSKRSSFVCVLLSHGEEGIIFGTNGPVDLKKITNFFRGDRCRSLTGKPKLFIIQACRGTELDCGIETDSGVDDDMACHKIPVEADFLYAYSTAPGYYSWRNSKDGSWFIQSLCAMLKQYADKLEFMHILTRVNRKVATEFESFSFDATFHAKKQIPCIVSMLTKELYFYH

[12] = target: T7, Caspase-5 (Homo sapiens, UniProt P51878); assay: Inhibitory concentration against casp-5 in neuronal precursor (NT2) cells
T7 sequence (P51878 whole entry): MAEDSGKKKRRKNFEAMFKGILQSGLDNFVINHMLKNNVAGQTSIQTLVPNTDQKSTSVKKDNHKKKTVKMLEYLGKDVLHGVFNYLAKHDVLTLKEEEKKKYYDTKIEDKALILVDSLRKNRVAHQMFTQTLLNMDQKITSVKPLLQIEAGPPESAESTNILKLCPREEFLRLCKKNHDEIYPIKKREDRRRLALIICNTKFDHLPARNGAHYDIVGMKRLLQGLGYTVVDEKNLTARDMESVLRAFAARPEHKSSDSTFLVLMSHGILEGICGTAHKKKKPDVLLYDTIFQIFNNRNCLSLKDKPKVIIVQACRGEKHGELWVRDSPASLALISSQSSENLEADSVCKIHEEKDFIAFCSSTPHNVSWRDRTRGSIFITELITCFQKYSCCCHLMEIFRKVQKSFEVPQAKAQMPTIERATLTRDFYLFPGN

[13] = target: T8, Caspase-7 (Homo sapiens, UniProt P55210); assay: Inhibitory concentration against recombinant human caspase-7 […]
T8 sequence (P55210 whole entry): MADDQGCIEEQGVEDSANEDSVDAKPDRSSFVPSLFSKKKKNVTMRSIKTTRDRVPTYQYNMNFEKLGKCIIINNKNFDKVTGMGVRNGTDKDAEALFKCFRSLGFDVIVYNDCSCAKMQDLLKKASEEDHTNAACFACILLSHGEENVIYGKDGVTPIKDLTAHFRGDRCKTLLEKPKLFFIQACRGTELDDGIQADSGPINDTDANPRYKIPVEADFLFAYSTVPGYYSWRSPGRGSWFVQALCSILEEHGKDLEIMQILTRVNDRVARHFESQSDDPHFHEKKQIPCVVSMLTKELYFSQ

[14] = Inhibitory concentration against cycloheximide induced cell death in human white blood cells in the presence of plasma proteins; format: functional, cell-based
[15] = target: T2, Caspase-10; assay: Inhibitory concentration against caspase-10 in neuronal precursor (NT2) cells
[16] = target: T7, Caspase-5; assay: Inhibitory concentration against human caspase-5 in neuronal precursor (NT2) cells
[17] = target: T3, Caspase-2; assay: Inhibitory concentration against caspase-2 in neuronal precursor (NT2) cells
[18] = target: T1, Caspase-4; assay: Inhibitory concentration against human caspase-4 in neuronal precursor (NT2) cells
[19] = target: T4, Caspase-6; assay: Inhibitory concentration against caspase-6 in neuronal precursor (NT2) cells

Caspase-8, sequence (Q14790 217-374 limits assumed): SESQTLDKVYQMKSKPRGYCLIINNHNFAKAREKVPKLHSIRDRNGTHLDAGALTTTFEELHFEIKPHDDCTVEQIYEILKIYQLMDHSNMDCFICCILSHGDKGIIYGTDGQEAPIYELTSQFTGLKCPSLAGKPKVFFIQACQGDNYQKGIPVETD
Caspase-8, sequence (Q14790 385-479 limits assumed): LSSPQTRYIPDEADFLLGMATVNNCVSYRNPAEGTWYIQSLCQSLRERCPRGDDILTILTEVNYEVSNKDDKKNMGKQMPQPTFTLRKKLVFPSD

Compound	IC50 [1] [µM]	IC50 [3] [µM]	IC50 [10] [µM]	IC50 [13] [µM]	IC50 [11] [µM]	other results
CCCCCN(C)CC(=O)C(CC(=O)O)NC(=O)C(CC)n1cc(C(C)(C)C)nc(NCc2nonc2C)c1=O (stereo not drawn)	4.03	0.027	0.11	0.09		IC50 [2]: 0.5 µM; IC50 [4]: 0.04 µM; IC50 [5]: 0.06 µM; IC50 [6]: 29.5 µM; IC50 [7]: > 10 µM; IC50 [8]: 3.44 µM; IC50 [9]: 0.06 µM; Ki [11]: 0.0014 µM; IC50 [12]: 0.81 µM; IC50 [14]: 0.7 µM
CCC(C(=O)N[C@@H](CC(=O)O)C(=O)CSCc1ccccc1)n1ccnc(NCc2cncs2)c1=O (stereo partly drawn)	6.59	3.42	0.19	0.49	0.012	
CCC(C(=O)N[C@@H](CC(=O)O)C(=O)CSCc1ccccc1)n1ccnc(NCc2cc(C)no2)c1=O (stereo partly drawn)	3.3	6.41	0.23	2.54	0.051	
CCC(C(=O)N[C@@H](CC(=O)O)C(=O)CSCc1ccccc1)n1ccnc(NCc2nccs2)c1=O (stereo partly drawn)	1.75	3.08	0.13	1.13	0.026	
CCC(C(=O)N[C@@H](CC(=O)O)C(=O)CSCc1ccccc1)n1ccnc(NCCn2cncn2)c1=O (stereo partly drawn)	> 10	5.74	1.93	9.71	0.018	
CCC(C(=O)N[C@@H](CC(=O)O)C(=O)CSCc1ccccc1)n1ccnc(NCCCN2CCCC2=O)c1=O (stereo partly drawn)	9.92	50	1.9	> 10	0.19	
CCC(C(=O)N[C@@H](CC(=O)O)C(=O)CSCc1ccccc1)n1ccnc(NCc2nnc(-c3ccccc3)o2)c1=O (stereo partly drawn)	4.92	52.1	0.98	> 10	0.31	
CCC(C(=O)N[C@@H](CC(=O)O)C(=O)CSCc1ccccc1)n1ccnc(NCCOC)c1=O (stereo partly drawn)	> 10	6.79	1.11	> 10	0.14	
CCC(C(=O)N[C@@H](CC(=O)O)C(=O)CSCc1ccccc1)n1ccnc(NCCCOC)c1=O (stereo partly drawn)	7.65	> 10	0.92	9.73	0.071	
CCC(C(=O)N[C@@H](CC(=O)O)C(=O)CSCc1ccccc1)n1ccnc(NCCn2nc(C)cc2C)c1=O (stereo partly drawn)	1.66	9.48	1.82	> 10	0.16	
CCC(C(=O)N[C@@H](CC(=O)O)C(=O)CSCc1ccccc1)n1ccnc(NCc2cccs2)c1=O (stereo partly drawn)	2.09	4.56	0.065	0.81	0.036	
CCCCCCN(C)CC(=O)C(CC(=O)O)NC(=O)C(CC)n1cc(C(C)(C)C)nc(NCc2nonc2C)c1=O (stereo not drawn)	2.1	0.021	0.05	0.013		IC50 [15]: 17.7 µM; IC50 [16]: 0.2 µM; IC50 [4]: 0.05 µM; IC50 [5]: 0.09 µM; IC50 [17]: > 10 µM; IC50 [9]: 0.05 µM; Ki [11]: 0.005 µM; IC50 [18]: 0.3 µM; IC50 [14]: 1.2 µM; IC50 [19]: 1.7 µM
CCC(C(=O)N[C@@H](CC(=O)O)C(=O)CSCc1ccccc1)n1ccnc(NCCn2cccn2)c1=O (stereo partly drawn)	2.26	7.09	0.99	> 10	0.082	

Source: ChEMBL document CHEMBL1144330, “Novel pyrazinone mono-amides as potent and reversible caspase-3 inhibitors” (Bioorg Med Chem Lett, 2005)
